The target in one experiment is T1, P300 (Homo sapiens, UniProt Q09472).
T1 construct: endogenous in cells; host or cells: 22Rv1 (ATCC CRL-2505) human prostate cancer cells
Kind of experiment: P300 degradation in 22Rv1 cells (5 h). The experiment is classed as cell-based. The following applies: 22Rv1 cells, 5 h; for Dmax: read-out: P300 Degradation (22Rv1, 5 h) DCmax. The source says: (§1) Biological Assays. […] Cells with 3-8 passages after purchase were used in experiments.

The subject of another experiment is HL60. In words: Cell growth inhibition in HL60. The experiment is classed as cell-based. As to conditions: Homo sapiens, HL-60, HL60 cells; read-out: Cell Growth Inhibition (IC50) HL60.
The target in the next experiment is T2, CBP (Homo sapiens, UniProt Q92793).
T2 construct: endogenous in cells; host or cells: 22Rv1 (ATCC CRL-2505) human prostate cancer cells
Kind of experiment: CBP degradation in 22Rv1 cells (5 h). The experiment is classed as cell-based. The following applies: 22Rv1 cells, 5 h; for Dmax: 22Rv1, 5 h, read-out: CBP Degradation (22Rv1, 5 h) DCmax.
Excerpt: as §1

The test system of a further experiment is 22Rv1 cells. Kind of experiment: Cell growth inhibition assay (CellTiter-Glo) in 22Rv1. The class given is cell-based, human. The following applies: Homo sapiens, 22Rv1, 96 h, 22Rv1 cells, 96 h incubation; read-out: Cell Growth Inhibition (IC50) 22Rv1. The method in brief: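 22Rv1 prostate cancer cells (passages 3-8, DMEM with 10% FBS) were seeded at 4000 cells/well with compound, 3-fold dilutions from 10 μM final. After 96 h at 37° C and 5% CO2, growth was read by CellTiter-Glo 2.0 luminescence.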
Background: In ATP-based viability assays light output follows the ATP content of the culture.

Where only a bound is given, the exact number is not on record here.

T2 sequence (Q92793 whole entry): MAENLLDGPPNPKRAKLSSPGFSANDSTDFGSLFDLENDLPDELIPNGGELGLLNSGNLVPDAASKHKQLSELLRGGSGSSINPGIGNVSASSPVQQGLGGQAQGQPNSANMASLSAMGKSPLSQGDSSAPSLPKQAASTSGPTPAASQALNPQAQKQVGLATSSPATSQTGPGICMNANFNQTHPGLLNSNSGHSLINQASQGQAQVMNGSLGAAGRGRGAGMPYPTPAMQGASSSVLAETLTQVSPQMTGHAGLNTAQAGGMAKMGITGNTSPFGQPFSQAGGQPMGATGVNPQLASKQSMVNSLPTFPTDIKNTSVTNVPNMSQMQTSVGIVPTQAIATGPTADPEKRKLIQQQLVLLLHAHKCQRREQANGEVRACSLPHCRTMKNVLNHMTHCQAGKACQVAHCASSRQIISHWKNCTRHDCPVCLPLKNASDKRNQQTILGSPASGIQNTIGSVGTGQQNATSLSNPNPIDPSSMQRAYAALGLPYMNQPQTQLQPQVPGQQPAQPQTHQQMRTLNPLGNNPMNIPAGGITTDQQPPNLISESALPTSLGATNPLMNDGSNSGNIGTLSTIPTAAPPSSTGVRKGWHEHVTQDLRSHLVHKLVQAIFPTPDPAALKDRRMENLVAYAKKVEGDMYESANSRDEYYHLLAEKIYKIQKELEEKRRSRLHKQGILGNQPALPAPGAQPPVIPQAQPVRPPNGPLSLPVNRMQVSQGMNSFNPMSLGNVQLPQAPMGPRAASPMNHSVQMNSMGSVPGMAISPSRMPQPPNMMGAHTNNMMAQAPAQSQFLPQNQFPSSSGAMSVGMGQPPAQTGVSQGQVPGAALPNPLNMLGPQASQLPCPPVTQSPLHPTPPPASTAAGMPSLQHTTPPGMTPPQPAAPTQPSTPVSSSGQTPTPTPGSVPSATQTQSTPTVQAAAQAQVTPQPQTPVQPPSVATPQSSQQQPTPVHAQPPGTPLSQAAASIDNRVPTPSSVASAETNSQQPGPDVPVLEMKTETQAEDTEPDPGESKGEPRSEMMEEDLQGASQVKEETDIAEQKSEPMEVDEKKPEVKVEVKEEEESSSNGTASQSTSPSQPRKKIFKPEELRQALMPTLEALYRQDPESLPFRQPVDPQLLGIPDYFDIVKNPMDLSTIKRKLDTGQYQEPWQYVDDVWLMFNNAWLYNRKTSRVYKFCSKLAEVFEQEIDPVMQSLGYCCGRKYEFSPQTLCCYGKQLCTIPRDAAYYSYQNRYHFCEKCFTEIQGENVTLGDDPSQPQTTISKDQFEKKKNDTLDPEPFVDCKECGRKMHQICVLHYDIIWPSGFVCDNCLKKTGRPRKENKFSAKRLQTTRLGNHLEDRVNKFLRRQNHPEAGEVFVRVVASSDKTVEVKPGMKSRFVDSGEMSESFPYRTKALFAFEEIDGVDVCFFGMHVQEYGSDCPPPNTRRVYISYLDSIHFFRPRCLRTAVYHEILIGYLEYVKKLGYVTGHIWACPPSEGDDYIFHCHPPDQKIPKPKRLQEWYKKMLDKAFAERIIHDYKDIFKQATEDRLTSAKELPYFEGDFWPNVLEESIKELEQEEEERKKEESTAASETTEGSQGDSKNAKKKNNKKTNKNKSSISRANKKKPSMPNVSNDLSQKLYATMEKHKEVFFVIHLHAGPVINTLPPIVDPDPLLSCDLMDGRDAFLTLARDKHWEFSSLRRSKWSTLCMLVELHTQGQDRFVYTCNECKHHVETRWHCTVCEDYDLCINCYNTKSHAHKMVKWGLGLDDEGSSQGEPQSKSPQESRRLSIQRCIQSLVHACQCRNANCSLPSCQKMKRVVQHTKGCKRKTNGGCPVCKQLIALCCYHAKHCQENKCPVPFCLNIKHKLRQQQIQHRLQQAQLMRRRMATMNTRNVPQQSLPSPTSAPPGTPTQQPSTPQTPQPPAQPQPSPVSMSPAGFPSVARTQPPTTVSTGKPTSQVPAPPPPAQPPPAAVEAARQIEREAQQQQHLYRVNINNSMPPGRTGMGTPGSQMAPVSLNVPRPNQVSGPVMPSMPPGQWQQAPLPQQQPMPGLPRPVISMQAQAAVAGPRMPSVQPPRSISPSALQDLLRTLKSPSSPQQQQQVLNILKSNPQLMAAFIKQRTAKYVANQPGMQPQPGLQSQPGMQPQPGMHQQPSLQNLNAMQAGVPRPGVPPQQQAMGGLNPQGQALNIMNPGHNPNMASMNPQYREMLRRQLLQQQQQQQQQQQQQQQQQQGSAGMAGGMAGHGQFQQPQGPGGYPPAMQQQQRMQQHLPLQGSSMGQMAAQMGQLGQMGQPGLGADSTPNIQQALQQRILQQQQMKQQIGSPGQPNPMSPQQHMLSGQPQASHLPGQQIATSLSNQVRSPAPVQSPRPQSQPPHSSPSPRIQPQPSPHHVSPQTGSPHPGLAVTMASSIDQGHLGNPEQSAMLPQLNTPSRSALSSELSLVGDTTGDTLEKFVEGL
T1 sequence (Q09472 whole entry): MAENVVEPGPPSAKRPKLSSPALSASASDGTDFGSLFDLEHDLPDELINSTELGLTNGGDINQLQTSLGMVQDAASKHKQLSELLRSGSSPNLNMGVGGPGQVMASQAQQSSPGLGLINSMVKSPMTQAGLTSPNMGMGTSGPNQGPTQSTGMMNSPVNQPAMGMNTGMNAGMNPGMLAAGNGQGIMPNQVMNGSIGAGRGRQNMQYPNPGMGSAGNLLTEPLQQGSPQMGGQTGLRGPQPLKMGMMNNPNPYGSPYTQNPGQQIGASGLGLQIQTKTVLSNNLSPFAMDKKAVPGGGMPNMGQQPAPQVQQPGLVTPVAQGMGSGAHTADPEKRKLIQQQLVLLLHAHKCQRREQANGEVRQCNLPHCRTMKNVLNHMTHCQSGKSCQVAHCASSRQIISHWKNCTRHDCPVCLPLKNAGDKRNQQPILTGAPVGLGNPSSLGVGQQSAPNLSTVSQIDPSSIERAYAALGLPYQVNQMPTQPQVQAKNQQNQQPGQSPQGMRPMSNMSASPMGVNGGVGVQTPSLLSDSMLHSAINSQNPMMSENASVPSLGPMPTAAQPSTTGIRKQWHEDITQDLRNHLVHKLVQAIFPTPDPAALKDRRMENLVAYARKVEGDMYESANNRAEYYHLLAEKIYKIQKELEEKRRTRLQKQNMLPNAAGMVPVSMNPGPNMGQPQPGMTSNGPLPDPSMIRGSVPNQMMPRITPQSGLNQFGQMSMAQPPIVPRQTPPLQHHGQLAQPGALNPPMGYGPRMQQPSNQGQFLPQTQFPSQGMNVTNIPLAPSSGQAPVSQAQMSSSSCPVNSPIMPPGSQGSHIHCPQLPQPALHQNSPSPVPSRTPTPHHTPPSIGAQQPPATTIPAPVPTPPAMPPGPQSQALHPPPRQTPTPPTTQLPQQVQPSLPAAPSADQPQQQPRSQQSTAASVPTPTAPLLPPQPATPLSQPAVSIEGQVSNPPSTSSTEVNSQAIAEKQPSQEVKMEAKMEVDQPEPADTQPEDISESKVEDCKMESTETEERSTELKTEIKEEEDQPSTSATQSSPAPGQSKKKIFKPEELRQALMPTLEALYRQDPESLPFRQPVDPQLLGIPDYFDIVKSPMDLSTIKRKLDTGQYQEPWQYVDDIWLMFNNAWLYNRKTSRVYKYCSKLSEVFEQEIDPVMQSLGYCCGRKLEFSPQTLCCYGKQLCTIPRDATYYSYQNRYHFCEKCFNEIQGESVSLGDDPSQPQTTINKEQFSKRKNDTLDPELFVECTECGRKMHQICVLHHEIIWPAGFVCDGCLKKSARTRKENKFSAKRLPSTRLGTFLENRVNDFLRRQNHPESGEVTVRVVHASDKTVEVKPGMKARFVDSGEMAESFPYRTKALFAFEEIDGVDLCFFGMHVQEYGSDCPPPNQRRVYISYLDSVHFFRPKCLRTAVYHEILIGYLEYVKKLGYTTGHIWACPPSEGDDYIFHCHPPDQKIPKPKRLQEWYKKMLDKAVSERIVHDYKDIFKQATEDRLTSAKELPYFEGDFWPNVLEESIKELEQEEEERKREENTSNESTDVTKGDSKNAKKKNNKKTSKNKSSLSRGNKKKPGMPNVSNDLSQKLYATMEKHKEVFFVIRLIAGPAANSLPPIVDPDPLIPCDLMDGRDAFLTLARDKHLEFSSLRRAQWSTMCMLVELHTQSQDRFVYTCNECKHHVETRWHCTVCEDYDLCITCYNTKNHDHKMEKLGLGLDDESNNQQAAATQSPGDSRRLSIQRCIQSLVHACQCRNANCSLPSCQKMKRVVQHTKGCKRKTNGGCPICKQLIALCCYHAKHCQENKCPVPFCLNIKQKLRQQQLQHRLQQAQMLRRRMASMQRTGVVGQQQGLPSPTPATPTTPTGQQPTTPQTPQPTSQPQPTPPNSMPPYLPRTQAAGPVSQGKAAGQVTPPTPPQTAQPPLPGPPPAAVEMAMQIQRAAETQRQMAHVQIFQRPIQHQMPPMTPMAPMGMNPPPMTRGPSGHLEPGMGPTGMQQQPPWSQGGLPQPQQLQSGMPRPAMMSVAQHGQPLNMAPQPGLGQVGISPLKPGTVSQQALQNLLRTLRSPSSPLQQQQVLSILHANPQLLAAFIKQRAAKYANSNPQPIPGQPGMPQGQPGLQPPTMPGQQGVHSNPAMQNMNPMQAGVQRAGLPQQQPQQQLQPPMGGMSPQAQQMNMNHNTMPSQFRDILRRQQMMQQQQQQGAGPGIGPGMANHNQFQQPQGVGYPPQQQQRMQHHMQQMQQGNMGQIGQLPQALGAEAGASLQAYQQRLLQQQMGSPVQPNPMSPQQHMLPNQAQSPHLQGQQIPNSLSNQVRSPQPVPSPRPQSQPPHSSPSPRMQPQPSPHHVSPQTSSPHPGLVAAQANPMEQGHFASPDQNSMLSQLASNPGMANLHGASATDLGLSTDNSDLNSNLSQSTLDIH

For the compound `CC(=O)N1CCc2c(c(N3CCCc4cc(C5CC5)c(C(F)F)cc43)nn2C2CCN(C(=O)CN3CCc4cc5c(cc4C3)C(=O)N(C3CCC(=O)NC3=O)C5=O)CC2)C1` (stereo not drawn) [CP-014, 6-(2-(4-(5-acetyl-3-(6-cyclopropyl-7-(difluoromethyl)-3,4-dihydroquinolin-1(2H)-yl)-4,5,6,7-tetrahydro-1H-pyrazolo[4,3-c]pyridin-1-yl)piperidin-1-yl)-2-oxoethyl)-2-(2,6-dioxopiperidin-3-yl)-5,6,7,8-tetrahydro-1H-pyrrolo[3,4-g]isoquinoline-1,3(2H)-dione], the DC50 at P300 and at CBP was < 10 nM throughout. For the same compound, the Dmax at P300 was > 70%; on CBP, > 90%. Also, the IC50 in the experiment with HL60 and in the experiment with 22Rv1 cells was < 1000 nM throughout.
For the compound `CC(=O)N1CCc2c(c(N3CCCc4cc(C(C)C)c(C(F)F)cc43)nn2C2CCN(C(=O)CN3Cc4cc5c(cc4C3)C(=O)N(C3CCC(=O)NC3=O)C5=O)CC2)C1` (stereo not drawn) [CP-015, 6-(2-(4-(5-acetyl-3-(7-(difluoromethyl)-6-isopropyl-3,4-dihydroquinolin-1(2H)-yl)-4,5,6,7-tetrahydro-1H-pyrazolo[4,3-c]pyridin-1-yl)piperidin-1-yl)-2-oxoethyl)-2-(2,6-dioxopiperidin-3-yl)-6,7-dihydropyrrolo[3,4-f]isoindole-1,3(2H,5H)-dione], the DC50 on P300 and on CBP was < 10 nM throughout. Besides, the Dmax on P300 was > 70%; at CBP it was > 90%. Also, the IC50 is < 100 nM with HL60 and < 1000 nM in the experiment on 22Rv1 cells.
With `CC(=O)N1CCc2c(c(N3CCCc4cc(Br)c(C(F)F)cc43)nn2C2CCN(C(=O)CN3Cc4cc5c(cc4C3)C(=O)N(C3CCC(=O)NC3=O)C5=O)CC2)C1` (stereo not drawn) [CP-016, 6-(2-(4-(5-acetyl-3-(6-bromo-7-(difluoromethyl)-3,4-dihydroquinolin-1(2H)-yl)-4,5,6,7-tetrahydro-1H-pyrazolo[4,3-c]pyridin-1-yl)piperidin-1-yl)-2-oxoethyl)-2-(2,6-dioxopiperidin-3-yl)-6,7-dihydropyrrolo[3,4-f]isoindole-1,3(2H,5H)-dione], the DC50 on P300 and on CBP was > 1000 nM each time. The Dmax on P300 and on CBP was < 50% in each case. For the same compound, the IC50 in the experiment with HL60 was < 100 nM; in the experiment with 22Rv1 cells, < 1000 nM.
`CC(=O)N1CCc2c(c(N3CCCc4cc(Cl)c(C(F)F)cc43)nn2C2CCN(C(=O)CN3Cc4cc5c(cc4C3)C(=O)N(C3CCC(=O)NC3=O)C5=O)CC2)C1` (stereo not drawn) [CP-017, 6-(2-(4-(5-acetyl-3-(6-chloro-7-(difluoromethyl)-3,4-dihydroquinolin-1(2H)-yl)-4,5,6,7-tetrahydro-1H-pyrazolo[4,3-c]pyridin-1-yl)piperidin-1-yl)-2-oxoethyl)-2-(2,6-dioxopiperidin-3-yl)-6,7-dihydropyrrolo[3,4-f]isoindole-1,3(2H,5H)-dione]: the DC50 on P300 and on CBP was > 1000 nM throughout. Also, the Dmax on P300 and on CBP was < 50% each time. Also, the concentration for half-maximal inhibition (IC50) in the experiment with HL60 and in the experiment on 22Rv1 cells was > 10000 nM each time.
As to `CC(=O)N1CCc2c(c(N3CCCc4cc(Cl)c(C(F)F)cc43)nn2C2CCN(C(=O)CN3CCc4cc5c(cc4C3)C(=O)N(C3CCC(=O)NC3=O)C5=O)CC2)C1` (stereo not drawn) [CP-018, 6-(2-(4-(5-acetyl-3-(6-chloro-7-(difluoromethyl)-3,4-dihydroquinolin-1(2H)-yl)-4,5,6,7-tetrahydro-1H-pyrazolo[4,3-c]pyridin-1-yl)piperidin-1-yl)-2-oxoethyl)-2-(2,6-dioxopiperidin-3-yl)-5,6,7,8-tetrahydro-1H-pyrrolo[3,4-g]isoquinoline-1,3(2H)-dione], the results for the DC50 on P300 and on CBP were > 1000 nM and < 1000 nM, respectively. The Dmax at P300 and at CBP was < 50% throughout. The IC50 in the experiment with HL60 and in the experiment on 22Rv1 cells was > 10000 nM each time.
As to `CC(=O)c1cc2c(cc1C(F)F)N(c1nn(C3CCN(C(=O)CN4Cc5cc6c(cc5C4)C(=O)N(C4CCC(=O)NC4=O)C6=O)CC3)c3c1CN(C(C)=O)CC3)CCC2` (stereo not drawn) [CP-019, 6-(2-(4-(5-acetyl-3-(6-acetyl-7-(difluoromethyl)-3,4-dihydroquinolin-1(2H)-yl)-4,5,6,7-tetrahydro-1H-pyrazolo[4,3-c]pyridin-1-yl)piperidin-1-yl)-2-oxoethyl)-2-(2,6-dioxopiperidin-3-yl)-6,7-dihydropyrrolo[3,4-f]isoindole-1,3(2H,5H)-dione], the DC50 at P300 and on CBP was > 1000 nM throughout. The Dmax at P300 and on CBP was < 50% each time. Besides, the IC50 with HL60 was < 1000 nM; with 22Rv1 cells, > 10000 nM.
Turning to `CC(=O)c1cc2c(cc1C(F)F)N(c1nn(C3CCN(C(=O)CN4CCc5cc6c(cc5C4)C(=O)N(C4CCC(=O)NC4=O)C6=O)CC3)c3c1CN(C(C)=O)CC3)CCC2` (stereo not drawn) [CP-020, 6-(2-(4-(5-acetyl-3-(6-acetyl-7-(difluoromethyl)-3,4-dihydroquinolin-1(2H)-yl)-4,5,6,7-tetrahydro-1H-pyrazolo[4,3-c]pyridin-1-yl)piperidin-1-yl)-2-oxoethyl)-2-(2,6-dioxopiperidin-3-yl)-5,6,7,8-tetrahydro-1H-pyrrolo[3,4-g]isoquinoline-1,3(2H)-dione], the DC50 on P300 and at CBP was > 1000 nM in each case. The Dmax at P300 and on CBP was < 50% in each case. Also, the IC50 in the experiment with HL60 was < 1000 nM; with 22Rv1 cells, > 10000 nM.
For the compound `CC(=O)N1CCc2c(c(N3CCCc4cc(C5CCCCC5)c(C(F)F)cc43)nn2C2CCN(C(=O)CN3Cc4cc5c(cc4C3)C(=O)N(C3CCC(=O)NC3=O)C5=O)CC2)C1` (stereo not drawn) [CP-021, 6-(2-(4-(5-acetyl-3-(6-cyclohexyl-7-(difluoromethyl)-3,4-dihydroquinolin-1(2H)-yl)-4,5,6,7-tetrahydro-1H-pyrazolo[4,3-c]pyridin-1-yl)piperidin-1-yl)-2-oxoethyl)-2-(2,6-dioxopiperidin-3-yl)-6,7-dihydropyrrolo[3,4-f]isoindole-1,3(2H,5H)-dione], the DC50 on P300 and at CBP was < 10 nM throughout. The values for the Dmax on P300 and at CBP were > 70% and > 90%, respectively. The figures for the IC50 with HL60 and in the experiment on 22Rv1 cells were < 100 nM and < 1000 nM, respectively.
For the compound `CC(=O)N1CCc2c(c(N3CCCc4cc(-c5ccccc5)c(C(F)F)cc43)nn2C2CCN(C(=O)CN3Cc4cc5c(cc4C3)C(=O)N(C3CCC(=O)NC3=O)C5=O)CC2)C1` (stereo not drawn) [CP-022, 6-(2-(4-(5-acetyl-3-(7-(difluoromethyl)-6-phenyl-3,4-dihydroquinolin-1(2H)-yl)-4,5,6,7-tetrahydro-1H-pyrazolo[4,3-c]pyridin-1-yl)piperidin-1-yl)-2-oxoethyl)-2-(2,6-dioxopiperidin-3-yl)-6,7-dihydropyrrolo[3,4-f]isoindole-1,3(2H,5H)-dione], the DC50 on P300 and on CBP was < 10 nM throughout. Further, the Dmax at P300 and on CBP was > 90% each time. Also, the IC50 in the experiment with HL60 and in the experiment with 22Rv1 cells was < 100 nM throughout.
In the case of `CC(=O)N1CCc2c(c(N3CCCc4cc(-c5ccc(F)cc5)c(C(F)F)cc43)nn2C2CCN(C(=O)CN3Cc4cc5c(cc4C3)C(=O)N(C3CCC(=O)NC3=O)C5=O)CC2)C1` (stereo not drawn) [CP-023, 6-(2-(4-(5-acetyl-3-(7-(difluoromethyl)-6-(4-fluorophenyl)-3,4-dihydroquinolin-1(2H)-yl)-4,5,6,7-tetrahydro-1H-pyrazolo[4,3-c]pyridin-1-yl)piperidin-1-yl)-2-oxoethyl)-2-(2,6-dioxopiperidin-3-yl)-6,7-dihydropyrrolo[3,4-f]isoindole-1,3(2H,5H)-dione], the DC50 at P300 and at CBP was < 10 nM throughout. In addition, the Dmax at P300 is > 70%; at CBP, > 90%. The figures for the IC50 in the experiment on HL60 and in the experiment on 22Rv1 cells were < 100 nM and < 1000 nM, respectively.
As to `CC(=O)N1CCc2c(c(N3CCCc4cc(-c5cccs5)c(C(F)F)cc43)nn2C2CCN(C(=O)CN3Cc4cc5c(cc4C3)C(=O)N(C3CCC(=O)NC3=O)C5=O)CC2)C1` (stereo not drawn) [CP-024, 6-(2-(4-(5-acetyl-3-(7-(difluoromethyl)-6-(thiophen-2-yl)-3,4-dihydroquinolin-1(2H)-yl)-4,5,6,7-tetrahydro-1H-pyrazolo[4,3-c]pyridin-1-yl)piperidin-1-yl)-2-oxoethyl)-2-(2,6-dioxopiperidin-3-yl)-6,7-dihydropyrrolo[3,4-f]isoindole-1,3(2H,5H)-dione], the DC50 at P300 and on CBP was < 10 nM each time. In addition, the values for the Dmax on P300 and on CBP were > 70% and > 90%, respectively. For the same compound, the values for the half-inhibitory concentration (IC50) in the experiment with HL60 and in the experiment with 22Rv1 cells were < 100 nM and < 1000 nM, respectively.
Consider `CC(=O)N1CCc2c(c(N3CCCc4cc(CCC5CC5)c(C(F)F)cc43)nn2C2CCN(C(=O)CN3Cc4cc5c(cc4C3)C(=O)N(C3CCC(=O)NC3=O)C5=O)CC2)C1` (stereo not drawn) [CP-025, 6-(2-(4-(5-acetyl-3-(6-(2-cyclopropylethyl)-7-(difluoromethyl)-3,4-dihydroquinolin-1(2H)-yl)-4,5,6,7-tetrahydro-1H-pyrazolo[4,3-c]pyridin-1-yl)piperidin-1-yl)-2-oxoethyl)-2-(2,6-dioxopiperidin-3-yl)-6,7-dihydropyrrolo[3,4-f]isoindole-1,3(2H,5H)-dione], for which the DC50 at P300 and at CBP was < 10 nM throughout. Also, the Dmax was > 70% on P300 and < 50% at CBP. The values for the IC50 in the experiment on HL60 and with 22Rv1 cells were < 100 nM and < 1000 nM, respectively.

As usually defined, the DC50 is the concentration giving 50% degradation. A higher DC50 goes with degradation only at high concentration. For orientation: IC50 means the concentration needed to halve the response being measured.

The record behind these values is patent US20240150360A1 (THE REGENTS OF THE UNIVERSITY OF MICHIGAN, priority 2021, published 2024).
